In patent publication US20220259212A1, “INHIBITORS OF INDOLEAMINE 2,3-DIOXYGENASE AND/OR TRYPTOPHAN 2,3-DIOXYGENASE” (Idorsia Pharmaceuticals Ltd, priority 2019, published 2022) one finds IC50 data, which are given here for twelve molecules.

The term IC50 denotes the concentration that inhibits the measured activity by half.

One experiment deals with T1, IDO1 in SKOV3 cells (Homo sapiens, UniProt P14902).
T1 construct: SKOV3 cells (NCI, No. 0503405) which upregulate IDO1 after stimulation with IFNγ; host or cells: SKOV3 cells stimulated with IFNγ
T1 sequence (P14902 whole entry): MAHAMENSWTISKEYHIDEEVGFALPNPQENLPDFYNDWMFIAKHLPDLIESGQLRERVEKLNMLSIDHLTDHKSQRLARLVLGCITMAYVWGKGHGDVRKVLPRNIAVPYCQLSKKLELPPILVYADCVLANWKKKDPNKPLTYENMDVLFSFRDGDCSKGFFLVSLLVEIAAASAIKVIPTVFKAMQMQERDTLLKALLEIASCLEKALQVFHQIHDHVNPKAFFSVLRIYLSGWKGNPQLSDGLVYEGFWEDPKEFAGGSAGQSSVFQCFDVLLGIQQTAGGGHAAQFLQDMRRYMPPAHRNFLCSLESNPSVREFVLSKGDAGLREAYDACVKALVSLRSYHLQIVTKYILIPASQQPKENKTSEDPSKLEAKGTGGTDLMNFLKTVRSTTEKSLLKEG
The experiment is described as follows: Cell-based IDO inhibitory activity in IFNγ-stimulated SKOV3 cells (NFK + kynurenine by LCMS). The note with it: IFNγ 50 ng/ml, 200 uM L-tryptophan, 24 hours. An excerpt: 3) Testing Compounds for IDO/TDO Inhibitory Activity and Toxicity in Cell-Based Assays
SW48 cells (ATCC, CCL-231) are used to measure compounds for TDO inhibitory activity and are routinely maintained in DMEM high glucose/GlutaMAX™/pyruvate 90% (v/v), FCS 10% (v/v), Penicilin/streptomycin 1% (v/v). SKOV3 cells (NCI, No. 0503405) which upregulate IDO1 after stimulation with IFNγ are used to measure compounds for IDO inhibitory activity. SKOV3 cells are routinely maintained in RPMI 90% (v/v), FCS 10% (v/v), Penicilin/streptomycin 1% (v/v). SW48 or SKOV3 cells are seeded in 384 well plates at a density of 8000 cells in 45 ul per well or 4000 cells in 45 ul per well, respectively. Plates are incubated at 37° C./5% CO2 for 24 hours. On the next day, 10 ul compound in serial dilutions (tested concentration range 10 uM-40 nM) and 200 uM L-tryptophan are added (SKV03 receive in addition IFNγ at a final concentration of 50 ng/ml). After 24 hours of incubation at 37° C./5% CO2, 3 ul of the supernatant per well is transferred to 25 ul H2O per well in a 384 deep well plate and 25 ul of the supernatant per well is transferred to waste. The SKOV3 and SW48 cell plates with 25 ul supernatant per well remaining are used to measure viability (see below). The 384 deep well plate containing 3 ul supernatant and 25 ul H2O per well are further processed for LCMS: After the addition of 100 ul L-tryptophan-(indole-d5) (Sigma 615862) at 200 nM in methanol, the 384 deep well plates are centrifuged for 10 minutes at 3220×g at 4° C., 75 ul H2O is added per well and plates centrifuged again for 10 minutes at 3220×g at 4° C. N-formylkynurenine and kynurenine are quantified by LCMS, normalized to the internal standard L-tryptophan-(indole-d5) and the sum is calculated. Samples with 0.2% DMSO (0% effect) and a TDO/IDO inhibitor (100% effect) are used as control samples to set the parameters for the non-linear regression necessary for the determination of the IC50 for each compound. For each compound concentration the percentage of activity compared to 0% and 100% effect is calculated as average±STDEV (each concentration measured in duplicate). IC50 values and curves are generated with XLfit software (IDBS) using Dose-Response One Site model 203. The calculated IC50 values may fluctuate depending on the daily cellular assay performance. Fluctuations of this kind are known to those skilled in the art. When compounds are measured multiple times, mean values are given.

The target in experiment [1] is T2, Recombinant human TDO comprising amino acids 19-407 (Homo sapiens, UniProt P48775).
T2 construct: human TDO comprising amino acids 19-407; hexahistidine (N); made in house; host or cells: E. coli
T2 sequence (P48775 19-406 limits assumed): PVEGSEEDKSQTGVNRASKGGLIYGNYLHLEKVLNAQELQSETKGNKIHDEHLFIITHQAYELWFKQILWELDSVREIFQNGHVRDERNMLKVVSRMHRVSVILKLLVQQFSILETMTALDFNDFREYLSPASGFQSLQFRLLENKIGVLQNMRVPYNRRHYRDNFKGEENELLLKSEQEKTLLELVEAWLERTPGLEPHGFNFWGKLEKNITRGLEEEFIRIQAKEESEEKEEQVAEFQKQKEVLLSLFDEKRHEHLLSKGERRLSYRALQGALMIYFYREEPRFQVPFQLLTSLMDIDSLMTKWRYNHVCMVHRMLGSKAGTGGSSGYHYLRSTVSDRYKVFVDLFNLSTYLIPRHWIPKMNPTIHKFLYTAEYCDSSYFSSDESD
The experiment is described as follows: TDO2 enzymatic assay (NFK quantified by LCMS). In kind it is biochemical. The note with it: 15 nM enzyme, 200 μM L-tryptophan, 30 min pre-incubation, pH7; mean if measured multiple times; read-out: hTDO activity (IC50 in nM). As for the experimental part:
2) Testing Compounds for TDO Inhibitory Activity in a TDO2 Enzymatic Assay:
Recombinant human TDO comprising amino acids 19-407 with a N-terminal hexahistidine tag expressed in E. coli and purified to homogeneity is incubated at a final concentration of 15 nM in assay buffer consisting of 75 mM phosphate buffer at pH7 supplemented with 100 μM ascorbic acid, 50 U/ml Catalase, 0.01% BSA, and 0.01% Tween 20 (protocol modified from Seegers et al, JBS 2014). Example compounds are serially diluted in DMSO, further diluted in phosphate buffer, and added to the reaction mixture at final concentrations ranging from 10 μM to 0.5 nM. The final DMSO concentration is 0.6%. Following a pre-incubation of 30 minutes at RT, the reaction is started by the addition of L-tryptophan at a final concentration of 200 μM in assay buffer. After 30 minutes of incubation at RT, 3 μL of the reaction mixture are transferred to a 384 deep well plate containing 25 μL of deionized water. 100 μl of 200 nM L-Tryptophan-(indole-d5) in cold 100% methanol are added followed by a 10 minutes centrifugation at 3220×g at 4° C. An additional 75 μL of deionized water are then added followed by a 10 minutes centrifugation at 3220×g at 4° C. The product of the reaction N′-Formylkynurenine (NFK) is quantified by LCMS and normalized to the L-Tryptophan-(indole-d5) signal. Samples with 0.6% DMSO (0% effect) and a TDO/IDO inhibitor (100% effect) are used as control samples to set the parameters for the non-linear regression necessary for the determination of the half-maximal inhibitory concentration (IC50) for each compound. For each compound concentration the percentage of activity compared to 0% and 100% effect is calculated as average±STDEV (each concentration measured in duplicate). IC50 values and curves are generated with XLfit software (IDBS) using Dose-Response One Site model 203 (four parameter logistic curve model). The calculated IC50 values may fluctuate depending on the daily assay performance. Fluctuations of this kind are known to those skilled in the art. When compounds are measured multiple times, mean values are given.

Experiment [2] addresses T3, Recombinant full-length human IDO1 (Homo sapiens, UniProt P14902).
T3 construct: Recombinant full-length human IDO1 with a N-terminal hexahistidine tag; hexahistidine (N); made in house; host or cells: E. coli
The experiment is described as follows: IDO1 enzymatic assay (NFK quantified by LCMS). In kind it is biochemical. The note with it: 2 nM enzyme, 5 μM L-tryptophan, 30 min pre-incubation, pH6.5; mean if measured multiple times; read-out: hIDO activity (IC50 in nM). The method, then:
1) Testing Compounds for IDO Inhibitory Activity in an IDO1 Enzymatic Assay:
Recombinant full-length human IDO1 with a N-terminal hexahistidine tag expressed in E. coli and purified to homogeneity is incubated at a final concentration of 2 nM in assay buffer consisting of 37.5 mM phosphate buffer at pH6.5 supplemented with 10 mM ascorbic acid, 0.45 μM methylene blue, 50 U/ml catalase, 0.01% BSA, and 0.01% Tween 20 (protocol modified from Seegers et al, JBS 2014). Example compounds are serially diluted in DMSO, further diluted in phosphate buffer, and added to the enzyme at final concentrations ranging from 10 μM to 0.5 nM. The final DMSO concentration is 0.6%. Following a pre-incubation of 30 minutes at RT, the reaction is started by the addition of L-tryptophan at a final concentration of 5 μM in assay buffer. After 30 minutes of incubation at RT, 3 μL of the 20 μl reaction mixture are transferred to a 384 deep well plate containing 25 μL of deionized water. 100 μl of 200 nM L-Tryptophan-(indole-d5) in cold 100% methanol are added followed by a 10 minutes centrifugation at 3220×g at 4° C. An additional 75 μL of deionized water are then added followed by a 10 minutes centrifugation at 3220×g at 4° C. The product of the reaction N′-Formylkynurenine (NFK) is quantified by LCMS and normalized to the L-Tryptophan-(indole-d5) signal. Samples with 0.6% DMSO (0% effect) and a TDO/IDO inhibitor (100% effect) are used as control samples to set the parameters for the non-linear regression necessary for the determination of the half-maximal inhibitory concentration (IC50) for each compound. For each compound concentration the percentage of activity compared to 0% and 100% effect is calculated as average±STDEV (each concentration measured in duplicate). IC50 values and curves are generated with XLfit software (IDBS) using Dose-Response One Site model 203 (four parameter logistic curve model). The calculated IC50 values may fluctuate depending on the daily assay performance. Fluctuations of this kind are known to those skilled in the art. When compounds are measured multiple times, mean values are given.

A value given as a limit tells only on which side of the number the result lay.

T3 sequence (P14902 whole entry): as the sequence (P14902 whole entry) above

As for `OC(c1cn(-c2ccc(OCC3(F)COC3)cc2)nn1)c1c(C2CC2)ncc2cncn12` (racemic) [Example 16, rac-(6-Cyclopropyl-imidazo[1,5-a]pyrazin-5-yl)-{1-[4-(3-fluoro-oxetan-3-ylmethoxy)-phenyl]-1H-[1,2,3]triazol-4-yl}-methanol], the IC50 on IDO1 in SKOV3 cells is 94.6 nM; in experiment [1] it was above 10200 nM; in experiment [2] it was 33.2 nM.
Consider `COc1ccc(-n2cc(C(O)c3c(C4CC4)ncc4cncn34)nn2)cc1` (racemic) [Example 17, rac-(6-Cyclopropyl-imidazo[1,5-a]pyrazin-5-yl)-[1-(4-methoxy-phenyl)-1H-[1,2,3]triazol-4-yl]-methanol], for which the IC50 was 172 nM on IDO1 in SKOV3 cells, above 10200 nM in experiment [1] and 20.4 nM in experiment [2].
`CC(C)(O)COc1ccc(-n2cc(C(O)c3c(C4CC4)ncc4cncn34)nn2)cc1` (racemic) [Example 18, rac-1-(4-{4-[(6-Cyclopropyl-imidazo[1,5-a]pyrazin-5-yl)-hydroxy-methyl]-[1,2,3]triazol-1-yl}-phenoxy)-2-methyl-propan-2-ol]: the values for the IC50 (at IDO1 in SKOV3 cells; in experiment [1]; in experiment [2]) were 140 nM, above 10200 nM and 33.2 nM, respectively.
On the same counts, the results for `OC(c1cn(-c2ccc(OCC3(F)COC3)cc2)nn1)c1c(C2CC2)ccc2cncn12` (racemic) [Example 19, rac-(6-Cyclopropyl-imidazo[1,5-a]pyridin-5-yl)-{1-[4-(3-fluoro-oxetan-3-ylmethoxy)-phenyl]-1H-[1,2,3]triazol-4-yl}-methanol] are 11.6 nM, above 10200 nM and 13.7 nM.
As for `COc1ccc(-n2nnc(C(O)c3c(Cl)ccc4cncn34)c2C)cc1` (racemic) [Example 20, rac-(6-Chloro-imidazo[1,5-a]pyridin-5-yl)-[1-(4-methoxy-phenyl)-5-methyl-1H-[1,2,3]triazol-4-yl]-methanol], the figures for the IC50 (on IDO1 in SKOV3 cells; in experiment [1]; in experiment [2]) were 14.5 nM, 5260 nM and 2.78 nM, respectively.
The matching figures for `CCc1ncc2cncn2c1C(O)c1cn(-c2cc(F)c(OC)cc2F)nn1` (racemic) [Example 32, rac-[1-(2,5-Difluoro-4-methoxy-phenyl)-1H-[1,2,3]triazol-4-yl]-(6-ethyl-imidazo[1,5-a]pyrazin-5-yl)-methanol]: 70.2 nM, above 10200 nM and 14.3 nM.
For the molecule `CCc1ccc2cncn2c1C(O)c1cn(-c2ccc(OC)cc2)nn1` (racemic) [Example 34, rac-(6-Ethyl-imidazo[1,5-a]pyridin-5-yl)-[1-(4-methoxy-phenyl)-1H-[1,2,3]triazol-4-yl]-methanol], the IC50 at IDO1 in SKOV3 cells was 14.5 nM; in experiment [1] it was above 10200 nM; in experiment [2], 2.97 nM.
For the molecule `CCc1ccc2cncn2c1C(O)c1cn(-c2cc(F)c(OC)cc2F)nn1` (racemic) [Example 35, rac-[1-(2,5-Difluoro-4-methoxy-phenyl)-1H-[1,2,3]triazol-4-yl]-(6-ethyl-imidazo[1,5-a]pyridin-5-yl)-methanol], the IC50 at IDO1 in SKOV3 cells was 3.05 nM; in experiment [1], above 10200 nM; in experiment [2] it was 3.39 nM.
The matching figures for `CCc1c(C(O)c2c(Cl)ccc3cncn23)nnn1-c1ccc(OC)cc1` (racemic) [Example 37, rac-(6-Chloro-imidazo[1,5-a]pyridin-5-yl)-[5-ethyl-1-(4-methoxy-phenyl)-1H-[1,2,3]triazol-4-yl]-methanol]: 39 nM, 6640 nM and 5.28 nM.
On the same counts, the results for `Cc1c(C(O)c2c(Cl)ccc3cncn23)nnn1-c1ccccc1` (racemic) [Example 38, rac-(6-Chloro-imidazo[1,5-a]pyridin-5-yl)-(5-methyl-1-phenyl-1H-[1,2,3]triazol-4-yl)-methanol] are 86 nM, 4710 nM and 5.43 nM.
The matching figures for `COc1cc(F)c(-n2nnc(C(O)c3c(Cl)ccc4cncn34)c2C)cc1Cl` (racemic) [Example 39, rac-[1-(5-Chloro-2-fluoro-4-methoxy-phenyl)-5-methyl-1H-[1,2,3]triazol-4-yl]-(6-chloro-imidazo[1,5-a]pyridin-5-yl)-methanol]: 6.94 nM, 7940 nM and 5.26 nM.
Turning to `Cc1c(C(O)c2c(Cl)ccc3cncn23)nnn1-c1ccc(O)c(Cl)c1` (racemic) [Example 43, rac-2-Chloro-4-{4-[(6-chloro-imidazo[1,5-a]pyridin-5-yl)-hydroxy-methyl]-5-methyl-[1,2,3]triazol-1-yl}-phenol], the IC50 on IDO1 in SKOV3 cells came to 64.2 nM; in experiment [1], 832 nM; in experiment [2], 3.88 nM.
